Legend:
Type in all cases: cell-based, Human enterovirus D68
[1] = tested on: EV-D68 strain USA-MO/18947; assay: CPE inhibition assay in RD cells; details: Enterovirus D, EVD68, 120 h; RD cells, 100 CCID50 virus, 33° C., five days, strain USA-MO/18947; read-out: Mean EC50 ± SD
[2] = tested on: EV-D68 strain USA-MO/18949; assay: CPE inhibition assay in RD cells; details: Enterovirus D, EVD68, 120 h; RD cells, 100 CCID50 virus, 33° C., five days, strain USA-MO/18949; read-out: Mean EC50 ± SD
[3] = tested on: EV-D68 strain USA-IL/18956; assay: CPE inhibition assay in RD cells; details: Enterovirus D, EVD68, 120 h; RD cells, 100 CCID50 virus, 33° C., five days, strain USA-IL/18956; read-out: Mean EC50 ± SD
[4] = tested on: EV-D68 1962 prototype strain (Fermon); assay: CPE inhibition assay in RD cells; details: Enterovirus D, EVD68, 120 h; RD cells, 100 CCID50 virus, 33° C., five days, strain Fermon; read-out: Mean EC50 ± SD
[5] = tested on: four EV-D68 strains; assay: microbe, parasite or virus in culture; details: RD cells
[6] = tested on: EV-D68 strain USA-MO/18947; assay: CPE inhibition assay repeated in HeLa H1 cells; details: Enterovirus D, EVD68
[7] = tested on: EV-D68 strain USA-MO/18949; assay: CPE inhibition assay repeated in HeLa H1 cells; details: Enterovirus D, EVD68
[8] = tested on: EV-D68 strain USA-IL/18956; assay: CPE inhibition assay repeated in HeLa H1 cells; details: Enterovirus D, EVD68
[9] = tested on: EV-D68 strain Fermon; assay: CPE inhibition assay repeated in HeLa H1 cells; details: Enterovirus D, EVD68
[10] = tested on: four EV-D68 strains; assay: CPE inhibition assay in HeLa H1 cells, text summaries over the strains; details: Enterovirus D, EVD68, all four strains, read-out: EC50 values, range over all four strains in HeLa H1 cells
[11] = tested on: EV-D68 Fermon strain; assay: CPE inhibition assay over a range of virus doses; details: Enterovirus D, EVD68; 100-fold virus dose range; strain not given; read-out: EC50 variation over a range of virus doses
Description: Antiviral activity was assessed in a homogeneous cell-based assay that measured inhibition of viral cytopathic effect in human rhabdomyosarcoma cells (RD; ATCC CCL-136). The viruses included three representative EV-D68 strains from the 2014 outbreak (USA-MO/18947, USA-MO/18949, USA-IL/18956) (Brown et al. 2014. Seven Strains of Enterovirus D68 Detected in the United States during the 2014 Severe Respiratory Disease Outbreak. Genome Announc 2:e01201-01214), as well as the 1962 prototype strain (Fermon) (Schieble et al. 1967. A probable new human picornavirus associated with respiratory diseases. Am J Epidemiol 85:297-310). For the CPE inhibition assay, half-log10 dilutions of drug compound (10 μM to 0.001 μM) were combined with 100 CCID50 (50% cell culture infectious dose) of virus and added to monolayers of RD cells (5000 cells per well) in 384-well, white, flat-bottom microplates. Plates were incubated at 33° C. and 5% CO2 for five days, and cell viability was assessed using ATPLite® (Perkin Elmer, Waltham, Mass.) by adding 15 μL of cell lysis buffer and then 15 μL of substrate solution, following the manufacturer's recommendations.
In both studies, the methods were somewhat different from our approach. […] For the other compounds tested, similar EC50 values were observed across this same dose range. […]

`Cc1cc(CCCOc2c(C)cc(-c3noc(C(F)(F)F)n3)cc2C)on1` [Pleconaril, pleconaril] gave an EC50 [1] of 4440 ± 550 nM, an EC50 [2] of 6090 ± 260 nM and an EC50 [3] of 6110 ± 1050 nM. For the same molecule, the EC50 [4] was 380 ± 10 nM, the “concentrations at which activity against the 2014 strains was detected” value ([5]; 2014 strains) was “greater than 4 μM” and the “EC50 against the 2014 strains relative to the Fermon strain” value ([5]; higher against 2014 strains) was “about 10 fold”. The EC50 [6] was 131 nM, the EC50 [7] was 358 nM and the EC50 [8] was 321 nM. The EC50 [9] was 360 nM, the EC50 [10] was 130 to 360 nM and the EC50 [11] was 300 to 500 nM.

— patent publication US10328128B2, “Treatment of infection by human enterovirus D68” (priority 2014, dated 2019)
